Reference: PMC7586386, “Discovery of Covalent Inhibitors Targeting the Transcriptional Enhanced Associate Domain Central Pocket” (Journal of Medicinal Chemistry, 2020)

How the values were obtained:
Ala mutant of mTEAD4 = molecular target: T1, Ala mutant of mTEAD4 (Mus musculus, UniProt Q62296, C360A); assay: Thiol conjugation assay with cysteine mutant; format: binding; details: 10 μM compound
T1 construct: N-terminal His6- and MBP-tagged mTEAD4^209–427 with Cys360Ala mutation; made in house; host or cells: E. coli BL21-CodonPlus (DE3)-RIPL
Description: (§1) To serially diluted solutions of the tested compounds in 5 μL of assay buffer [HEPES (25 mM) and NaCl (150 mM) pH 6.5], freshly prepared 5 μL of 0.45 μM protein solution was added and incubated at room temperature for 10 min, followed by addition of 5 μL of 0.45 μM CPM solution, giving a 15 μL final assay volume, 150 nM protein, and 150 nM CPM. The assay plate was shaken at room temperature for 1 h before measuring the fluorescence (Ex/Em: 380/470 nm). Compound 19 was used as an internal standard to determine 100% inhibition.

Ser mutant of mTEAD4 = molecular target: T2, Ser mutant of mTEAD4 (Mus musculus, UniProt Q62296, C360S); assay: Thiol conjugation assay with cysteine mutant; format: binding; details: 10 μM compound
T2 construct: His (N); made in house
Description: as §1

hTEAD4 = molecular target: T3, hTEAD4 (Homo sapiens, UniProt Q15561); assay: Cellular thermal shift assay (CETSA) in HCT116 cell lysates; format: cell-based; details: 50 μM, 10 min, DMSO 49.8
T3 construct: Target engagement in HCT116 cell lysates was proven by means of a cellular thermal shift assay; endogenous in cells; host or cells: HCT116 cell lysate
Description: HCT116 cells were grown in Dulbecco’s modified Eagle’s medium (Sigma-Aldrich, #P04-03550) containing 10% fetal bovine serum, 1× NEAA (Sigma-Aldrich, # P08-32800) and 1 mM sodium pyruvate (Sigma-Aldrich, #S8636) until they reached 90% confluency. Cells were detached, transferred to two separate tubes, and washed three times with PBS. Then, 0.6 mL of PBS containing 0.04% NP-40 was added to each tube and cells were lysed by means of freeze and thaw. Lysates were centrifuged (Beckman Optima MAX-TL) at 100,000g, 4 °C for 25 min and protein concentration was determined using the DC Protein Assay Kit I (Bio-Rad, #5000111). Aliquots (1.5 mL) containing 1 mg/mL protein were stored at −80 °C until further usage.
Compound 19 (2.75 μL 10 mM stock, 50 μM) or DMSO (2.75 μL) was added to 550 μL of HCT116 lysates (1 mg/mL), samples were mixed and incubated for 10 min at room temperature. Treated and nontreated lysates were divided into ten aliquots, each 50 μL in PCR tubes. The aliquots were individually heated at different temperatures (Eppendorf Mastercycler ep Gradient S). […] To 16 μL of each supernatant was added 4 μL of 5× loading buffer and incubated for 5 min at 95 °C, before samples were analyzed by immunoblotting. […]
Images were analyzed with ImageJ (FUJI). […]

hTEAD4 (nonacylated) [1] = molecular target: T4, hTEAD4 (nonacylated) (Homo sapiens, UniProt Q15561); assay: Differential scanning fluorimetry; format: binding; details: 20 μM protein, 80 μM inhibitor; value is a decrease
T4 construct: N-terminal His6-tagged hTEAD4^217–434 was subcloned; made in house; host or cells: Escherichia coli BL21-CodonPlus (DE3)-RIPL
Description: Nonacylated hTEAD4 (20 μM) was incubated in the absence or presence of inhibitors (80 μM) at 25 °C for 10 min. Then, SYPRO orange (Sigma-Aldrich) at a final concentration of 5× was added and the mixture was heated at a ramp rate of 1 °C/min in a qPCR machine (Applied Biosystems). The derivative of the SYPRO orange fluorescent intensity is plotted as a function of temperature.

mTEAD4 (nonacylated) = molecular target: T5, mTEAD4 (nonacylated) (Mus musculus, UniProt Q62296); assay: 1H–15N HSQC NMR; format: binding; details: 0.5 mM compound, versus DMSO
T5 construct: made in house
Description: The ^13C/^15N-labeled mTEAD4 was prepared following a protocol established earlier,[45] and the protein was deacylated as described above for hTEAD4. ^1H–^15N HSQC spectra in the presence of DMSO or the test compound (0.5 mM) were collected at 37 °C on a Bruker 600 MHz magnet equipped with a cryoprobe in 20 mM HEPES, pH 7.3 buffer containing 150 mM NaCl and 1 mM DTT. The spectra were processed and overlaid.

[2] = Assay media stability (HPLC); format: physicochemical
Description: The compounds were incubated in MES (25 mM), pH 6.5 buffer or HEPES (25 mM) and NaCl (150 mM) pH 6.5 buffer for an hour at room temperature before injecting into a reverse-phase HPLC system (ThermoScientific_Ultimate 3000) equipped with a C18 column (2/50 Nucleodur C18 gravity 1.8 μm von Macherey-Nagel).

hTEAD4 (nonacylated) [3] = molecular target: T4, hTEAD4 (nonacylated); assay: Time-dependent inhibition, thiol conjugation assay; format: binding
Description: as §1
TDI of hTEAD4 (nonacylated) by compound 19 was monitored in FP (central pocket binding) and thiol conjugation assays at 5–7 different concentrations (0.15–40 μM) following 1, 2, 4, and 24 h incubation at 4 °C (mean ± SD; n = 2). By fitting the percent of inhibition versus preincubation time at different concentrations, kobs was calculated. Next, kobs was plotted against concentration and was further fitted to a nonlinear regression model to determine the kinetic parameters of covalent inhibition of hTEAD4, where plateau is showing kinact (min^–1) and t1/2 is Ki (μM).

T4 sequence (Q15561 217-434): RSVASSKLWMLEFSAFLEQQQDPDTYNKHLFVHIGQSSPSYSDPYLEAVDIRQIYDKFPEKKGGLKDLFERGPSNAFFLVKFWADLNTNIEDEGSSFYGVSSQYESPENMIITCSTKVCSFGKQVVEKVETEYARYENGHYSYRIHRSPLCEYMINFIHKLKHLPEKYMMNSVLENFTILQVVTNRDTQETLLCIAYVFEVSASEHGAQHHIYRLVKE
T1 sequence (Q62296 209-427 C360A): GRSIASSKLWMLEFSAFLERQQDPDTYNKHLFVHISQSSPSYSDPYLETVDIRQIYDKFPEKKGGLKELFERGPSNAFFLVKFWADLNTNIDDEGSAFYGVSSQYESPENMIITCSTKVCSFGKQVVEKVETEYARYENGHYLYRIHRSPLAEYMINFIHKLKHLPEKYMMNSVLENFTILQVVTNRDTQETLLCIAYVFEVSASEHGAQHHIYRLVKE
T2 sequence (Q62296 whole entry C360S): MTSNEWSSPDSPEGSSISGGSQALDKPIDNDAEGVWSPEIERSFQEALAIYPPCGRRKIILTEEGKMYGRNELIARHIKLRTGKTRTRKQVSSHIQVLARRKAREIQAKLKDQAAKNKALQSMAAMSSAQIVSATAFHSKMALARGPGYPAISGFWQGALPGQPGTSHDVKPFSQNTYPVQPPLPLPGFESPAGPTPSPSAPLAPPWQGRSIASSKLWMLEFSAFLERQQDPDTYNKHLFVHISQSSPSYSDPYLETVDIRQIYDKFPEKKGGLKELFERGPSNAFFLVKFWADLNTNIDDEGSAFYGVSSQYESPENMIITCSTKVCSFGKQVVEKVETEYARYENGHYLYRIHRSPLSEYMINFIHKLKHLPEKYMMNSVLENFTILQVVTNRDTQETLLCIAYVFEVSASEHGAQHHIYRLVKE
T3 sequence (Q15561 whole entry): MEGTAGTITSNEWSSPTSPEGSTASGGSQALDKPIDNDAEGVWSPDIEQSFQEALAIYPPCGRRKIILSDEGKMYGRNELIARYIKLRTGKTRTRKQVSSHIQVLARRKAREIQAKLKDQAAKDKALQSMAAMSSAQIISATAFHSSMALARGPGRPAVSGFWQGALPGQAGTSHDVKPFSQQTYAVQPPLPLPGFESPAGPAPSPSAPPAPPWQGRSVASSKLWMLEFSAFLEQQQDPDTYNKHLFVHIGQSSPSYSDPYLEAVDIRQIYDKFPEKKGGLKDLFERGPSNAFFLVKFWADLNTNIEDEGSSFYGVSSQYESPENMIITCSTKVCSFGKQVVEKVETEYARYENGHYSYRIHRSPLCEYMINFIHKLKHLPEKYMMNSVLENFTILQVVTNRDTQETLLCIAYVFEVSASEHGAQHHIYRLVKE
T5 sequence (Q62296 210-427 limits assumed): as the sequence (Q15561 217-434) above, with V3I, Q19R, G35S, A48T, D67E, E91D, S96A, S142L counted along it

SMILES: O=c1cc(CO)oc(C(Nc2ccccc2)c2ccccc2)c1O (stereo not drawn) [Compound 19, 3-Hydroxy-6-(hydroxymethyl)-2-(phenyl(phenylamino)methyl)-4H-pyran-4-one]
- inhibition of the increase in fluorescence signal (Ala mutant of mTEAD4): cannot inhibit
- inhibition of the increase in fluorescence signal (Ser mutant of mTEAD4): cannot inhibit
- melting temperature of hTEAD4 (CETSA) (hTEAD4): 53.1 °C
- lowering of the melting point (Tm) (hTEAD4 (nonacylated) [1]): 5 °C
- effect on 1H–15N HSQC spectrum (mTEAD4 (nonacylated)): induced line broadening of several residues
- stability in assay medium ([2]; HEPES buffer (pH 6.5), 1 h): appearance of two small peaks was detected
- stability in assay medium ([2]; MES buffer, pH 6.5, 1 h, rt): stable
- kinact (hTEAD4 (nonacylated) [3]; supplementary CSV): 0.000333 s⁻¹
- kinact/KI (hTEAD4 (nonacylated) [3]; thiol conjugation assay): 138 M⁻¹ s⁻¹
